{"source": "patent US9320803B2", "about": "(priority 2011, dated 2016)", "key": {"[1]": {"settings": "pH 5.0; cited from earlier work"}, "[2]": {"experiment": "Acid cleavage study of compound 14 (HPLC)", "assay_type": "physicochemical", "settings": "pH 3.8 (phosphoric acid added), after 5 min at room temperature, 300 μM, reverse phase HPLC", "procedure": "1 mL of a 300 μM solution of 14 in 50 mM sodium phosphate buffer was prepared and a 50 μL sample was analyzed by reverse phase HPLC (see FIG. 1A). To 400 μL of this solution was added 4 μL concentrated phosphoric acid resulting in a pH value of 3.8."}, "[3]": {"experiment": "Binding studies to hydroxyapatite", "settings": "pH 7.4, 37° C., 300 μM, hydroxyapatite 30 eq", "procedure": "General procedure: In a falcon tube, the test compound was diluted in phosphate-buffer (4 mM Na2HPO4 containing 150 mM NaCl, pH 7.4) to obtain a solution with a concentration of 300 μM. Hydroxyapatite (30 eq) was added and the suspension was stirred well and incubated at 37° C. Another solution of the samples without hydroxyapatite was used as control. […] (4000 rpm, duration: 60 sec, Heraeus® Megafuge® 1.0) and the absorbance of the supernatant was measured with a spectrophotometer at a wavelength of 495 nm (ε495(doxorubicin)=10 650 M^−1 cm^−1). Each result represents the arithmetic average of three measurements and percent HA binding was calculated."}, "cathepsin B": {"biological_target": "T1, cathepsin B (Homo sapiens, UniProt P07858)", "T1 construct": "purchased Calbiochem, Germany", "experiment": "Cleavage studies with cathepsin B (HPLC)", "assay_type": "biochemical", "procedure": "For cleavage of 16 with cathepsin B, 150 μL of a 50 mM sodium acetate buffer containing 100 mM NaCl, 4 mM EDTA Na2 and 0.15 mg L-cysteine (pH 5.0). 6.7 μL cathepsin B solution (23.8 U/mg, from Calbiochem, Germany) were added to a 100 μL solution of 16 (300 μM in 50 mM sodium phosphate buffer, pH 7.0) and the solution incubated for 1 h at 37° C.\nHPLC was carried out with a Symmetry300, C18, 5 μm (4.6×250 mm) HPLC using 15% acetonitrile and 85% 20 mM sodium phosphate buffer (pH 7.0) as mobile phase A and 30% acetonitrile and 70% 20 mM sodium phosphate buffer (pH 7.0) as mobile phase B. The gradient was 0 to 1.5 min 100% phase A, 1.5 to 20 min to 100% B, 20 min to 45 min 100% B, 45 to 55 min to 100% A. Flow 1 mL/min; injection volume: 50 μL.\nA 176 μL stock solution of compound 23 [1.5 mM] was diluted with 9 μL cathepsin B (0.4 mg/mL, 23.8 U/mg, from Calbiochem, Germany) and 264 μL of buffer (50 mM sodium acetate, 100 mM NaCl, 4 mM EDTA, pH 5.0) containing L-cysteine (8 mM). The mixture was incubated at 37° C. and aliquots (65 μL) were taken after 0 min, 20 min, 40 min, 60 min and 120 min and analyzed by HPLC. […]"}, "[4]": {"experiment": "Binding studies to native bone matrix", "parameters": "species or system bovine", "settings": "after 4 h, pH 7.4, 37° C., 300 μM, about 50 mg bone piece", "procedure": "For this binding assay, bovine bone fragments were cut into small pieces (6 mm×4 mm×1 mm). The bone pieces were left untreated, washed with water (bidest.) and with absolute ethanol and dried over night at room temperature. Then, in a falcon tube the prodrugs were dissolved in phosphate-buffer (4 mM Na2HPO4 containing 150 mM NaCl, pH 7.4) to obtain a concentration of 300 μM. Approximately 50 mg of an untreated bone piece was added to the clear red solution, and the samples were incubated under stirring at 37° C. After 4 h, the samples were centrifuged (4000 rpm, duration: 60 sec, Heraeus® Megafuge® 1.0), and the absorbance of the supernatant was measured with a spectrophotometer at a wavelength of 495 nm (ε495(doxorubicin)=10650 M^−1 cm^−1). Percent bone binding was calculated"}}}
{"smiles": "COc1cccc2c1C(=O)c1c(O)c3c(c(O)c1C2=O)C[C@@](O)(/C(CO)=N/NC(=O)CCCCCN1C(=O)C=CC1=O)C[C@@H]3O[C@H]1C[C@H](N)[C@H](O)[C@H](C)O1", "note": "[DOXO-EMCH, 6-maleimidocaproylhydazone derivative of doxorubicin]", "values": [{"measurement": "acid-sensitive cleavage releasing doxorubicin", "setting": "[1]", "result": "cleavable at pH 5.0"}]}
{"smiles": "COc1cccc2c1C(=O)c1c(O)c3c(c(O)c1C2=O)C[C@@](O)(/C(CO)=N/NC(=O)CCCCCN1C(=O)CC(SCCCSCC(P(=O)(O)O)P(=O)(O)O)C1=O)C[C@@H]3OC1C[C@@H](N)[C@@H](O)[C@@H](C)O1", "note": "(stereo partly shown) [compound 14]", "values": [{"measurement": "cleavage to doxorubicin", "setting": "[2]", "result": "rapid cleavage to doxorubicin"}, {"measurement": "percent HA binding", "setting": "[3]; after 5 h", "result": "~80", "unit": "%"}, {"measurement": "percent HA binding", "setting": "[3]; after one hour", "result": "approximately 50%"}]}
{"smiles": "COc1cccc2c1C(=O)c1c(O)c3c(c(O)c1C2=O)C[C@@](O)(C(=O)CO)CC3O[C@H]1C[C@H](NC(=O)OCc2ccc(NC(=O)C(CCCCN)NC(=O)C(Cc3ccccc3)NC(=O)CCCCCN3C(=O)CC(SCCCSCC(P(=O)(O)O)P(=O)(O)O)C3=O)cc2)[C@H](O)[C@H](C)O1", "note": "(stereo partly shown) [compound 16]", "values": [{"measurement": "cleavage to doxorubicin by cathepsin B", "setting": "cathepsin B; incubation 1 h at 37° C., buffer pH 5.0, reverse phase HPLC", "result": "complete cleavage to doxorubicin"}]}
{"smiles": "COc1cccc2c1C(=O)c1c(O)c3c(c(O)c1C2=O)C[C@@](O)(C(=O)CO)CC3O[C@H]1C[C@H](NC(=O)OCc2ccc(NC(=O)[C@H](C)NC(=O)[C@@H](NC(=O)CCCCCN3C(=O)CC(SCCCSCC(P(=O)(O)O)P(=O)(O)O)C3=O)C(C)C)cc2)[C@H](O)[C@H](C)O1", "note": "(stereo partly shown) [compound 23]", "values": [{"measurement": "cleavage to doxorubicin by cathepsin B", "setting": "cathepsin B; incubation 2 h at 37° C., pH 5.0, reversed phase HPLC", "result": "complete cleavage to doxorubicin"}, {"measurement": "percent HA binding", "setting": "[3]; after 5 h", "result": "over 90%"}, {"measurement": "percent HA binding", "setting": "[3]; after 24 h", "result": "~100", "unit": "%"}, {"measurement": "percent HA binding", "setting": "[3]; after one hour", "result": "approximately 50%"}]}
{"smiles": "COc1cccc2c1C(=O)c1c(O)c3c(c(O)c1C2=O)C[C@@](O)(C(=O)CO)C[C@@H]3O[C@H]1C[C@H](N)[C@H](O)[C@H](C)O1", "note": "[doxorubicin]", "values": [{"measurement": "percent bone binding", "setting": "[4]", "result": "no binding"}]}
